Laboratory results taken from patent US5116857A, “Method of increasing gastrointestinal motility with substituted benzamides” (Laboratoires Delagrange Div. Societe d'Applications …, priority 1988, dated 1992).

Legend:
guinea-pigs = test: Gastric emptying measured by x-ray localization of barium sulfate spheroids in guinea pigs after i.p. administration; format: in vivo, guinea pig; settings: for Gastric emptying (percentage of spheroids leaving the stomach) after 1 hour / Gastric emptying (percentage of spheroids leaving the stomach) after 2 hours: 1 mg/kg i.p.; for Gastric emptying (percentage of spheroids leaving the stomach) after 1 hour / Gastric emptying (percentage of spheroids leaving the stomach) after 2 hours / Gastric emptying after 2 hours: guinea-pigs; for Gastric emptying (percentage of spheroids leaving the stomach) after 2 hours: control group 28%; for Gastric emptying at 1 mg/kg compared with metoclopramide 5 mg/kg: 1 mg/kg of compound vs 5 mg/kg of metoclopramide; for Gastric emptying after 2 hours: 5 mg/kg, control group 24.8%
Protocol: Feeding of the animals were interrupted 14 hours before measurement of gastric emptying. The experimentation was conducted under weak illumination, with the least possible noise and disturbances, solely by experimentors having daily contact with the guinea pigs and having sufficient initial training in handling the animals. The animals were then subjected to minimal stress.
The measurement of gastric emptying was carried out by x-ray localization (50 KV, 30 mA, 0.5-0.8 s.), on Kodak plates (NS-2T, 13×18 cm) of barium sulfate spheroids (approximately 30, 1 mm in diameter) coated with polystyrene, which the guinea pigs were made to swallow by placing them in the back of the throat, in a solution of 0.2 ml of 1% carboxymethylcellulose with 0.05 ml of glycerine, so as to initiate rapid and voluntary deglutition.
The passage of the spheroids was followed for 3 to 4 hours, the animals being placed in their customary cages for that time and taken out only 5 minutes before x-ray exposure (at intervals of 30-60 minutes). During the x-ray procedure, the animals were placed in individual holding cages, keeping them comfortably in a stable position, the cage being sufficiently sized (33×15 cm and 13 cm high) so as to comfortably maintain a 450 to 550 gram guinea pig between the padded walls, the animal being trained to enter the cage and remain there tranquilly and without stress.
Gastric emptying was measured by the number of spheroids leaving the stomach. For each dose of product studied, 6 guinea pigs were used, and the responses were compared to those of guinea pigs receiving the appropriate vehicle.
Compound (I) was studied at doses of 1 mg/kg and 0.01 mg/kg, Compounds (II) to (V) were studied at a dose of 1 mg/kg, the compounds (VI) to (VIII) at a dose of 5 mg/kg. Metoclopramide was evaluated at doses of 1 mg/kg and 5 mg/kg.
The results are recorded in graphic form in FIG. 1. The compounds according to the invention and metoclopromide were dissolved in distilled water and the doses are expressed as base.
This emptying is expressed, in FIG. 1 and Table 1, as a percentage of spheroids leaving the stomach.

[1] = Acute toxicity, intravenous, male mice; settings: mouse, in vivo, read-out: LD50 (median lethal dose)
Excerpt: The acute toxicity of the compounds of the invention administered intravenously was studied in male mice.

| SMILES | Gastric emptying (percentage of spheroids leaving the stomach) after 1 hour (guinea-pigs) | Gastric emptying (percentage of spheroids leaving the stomach) after 2 hours (guinea-pigs) | Gastric emptying at 1 mg/kg compared with metoclopramide 5 mg/kg (guinea-pigs) | LD50 [1] | Gastric emptying after 2 hours (guinea-pigs) | Effect on gastric emptying (in words) (guinea-pigs; intraperitoneal, immobilized guinea-pigs, FIG. 1) |
| --- | --- | --- | --- | --- | --- | --- |
| CCN(CC)CCNC(=O)c1cc(Cl)c(NC2=NCCN2)cc1OC [Compound I, N-[2-(diethylamino)ethyl]-2-methoxy-4-[(4,5-dihydro-1H-imidazol-2-yl)-amino]-5-chlorobenzamide] | 24% | 63% | a result equivalent to the use of 5 mg/kg of metoclopramide | 12.8 to 14.4 mg/kg |  |  |
| CCN(CC)CCNC(=O)c1cc(Cl)c(NC2=NCCS2)cc1OC [Compound II, N-[2-(diethylamino)ethyl]-2-methoxy-4-[(4,5-dihydro-2-thiazolyl)amino]-5-chlorobenzamide] | 12.5% | 60% |  | 40.6 to 48.7 mg/kg |  |  |
| CCN(CC)CCNC(=O)c1cc(Cl)c(NC2=NCCO2)cc1OC [Compound III, N-[2-(diethylamino)ethyl]-2-methoxy-4-[(4,5-dihydro-2-oxazolyl)amino]-5-chlorobenzamide] | 20% | 57% |  | 91 to 116 mg/kg |  |  |
| CNC(=O)c1cc(Cl)c(NC2=NCCN2)cc1OC [Compound IV, N-methyl-2-methoxy-4-[(4,5-dihydro-1H-imidazol-2-yl)amino] -5-chlorobenzamide] | 38% | 62% | a result equivalent to the use of 5 mg/kg of metoclopramide | 95.8 to 138 mg/kg |  |  |
| CCN(CC)CCNC(=O)c1cc(Cl)c(NC2=NCCN2)cc1O [Compound V, N-[2-(diethylamino)ethyl]-2-hydroxy-4-[(4,5-dihydro-1H-imidazol-2-yl)-amino]-5-chlorobenzamide] | 32% | 55% |  | 65.7 to 76.7 mg/kg |  |  |
| COc1cc(NC2=NCCN2)c(Cl)cc1C(=O)NC(C)C [Compound VII, N-isopropyl-2-methoxy-4-[(4,5-dihydro-1H-imidazol-2-yl)amino]-5-chlorobenzamide] |  |  |  |  | 46.2% |  |
| C=CCNC(=O)c1cc(Cl)c(NC2=NCCN2)cc1OC [Compound VIII, N-allyl-2-methoxy-4-[(4,5-dihydro-1H-imidazol-2-yl)amino]-5-chlorobenzamide] |  |  |  |  | 47.4% |  |
| CCN(CC)CCNC(=O)c1cc(Cl)c(N)cc1OC [metoclopramide, N-(2-diethylaminoethyl)-2-methoxy-4-amino-5-chlorobenzamide, reference compound] | 16% | 39% |  | 25.4 to 37.9 mg/kg |  | an increase in gastric emptying |
